Results on 30 compounds are retold here after patent publication US11643388B2, “Inhibitors of alpha 2 beta 1 integrin and methods of use thereof” (The Regents of the University of California, priority 2020, dated 2023).

What is called IC50 is the point on the concentration scale where inhibition reaches its midpoint. Low values mean greater potency, high ones weaker potency.

Where only a bound is given, the exact number is not on record here.

In this test the target is α2β1 (Homo sapiens, UniProt P05556+P17301). The test is described as follows: α2β1 cell adhesion. Type of test: cell-based.
Sequence of α2β1 (P17301 30-1181): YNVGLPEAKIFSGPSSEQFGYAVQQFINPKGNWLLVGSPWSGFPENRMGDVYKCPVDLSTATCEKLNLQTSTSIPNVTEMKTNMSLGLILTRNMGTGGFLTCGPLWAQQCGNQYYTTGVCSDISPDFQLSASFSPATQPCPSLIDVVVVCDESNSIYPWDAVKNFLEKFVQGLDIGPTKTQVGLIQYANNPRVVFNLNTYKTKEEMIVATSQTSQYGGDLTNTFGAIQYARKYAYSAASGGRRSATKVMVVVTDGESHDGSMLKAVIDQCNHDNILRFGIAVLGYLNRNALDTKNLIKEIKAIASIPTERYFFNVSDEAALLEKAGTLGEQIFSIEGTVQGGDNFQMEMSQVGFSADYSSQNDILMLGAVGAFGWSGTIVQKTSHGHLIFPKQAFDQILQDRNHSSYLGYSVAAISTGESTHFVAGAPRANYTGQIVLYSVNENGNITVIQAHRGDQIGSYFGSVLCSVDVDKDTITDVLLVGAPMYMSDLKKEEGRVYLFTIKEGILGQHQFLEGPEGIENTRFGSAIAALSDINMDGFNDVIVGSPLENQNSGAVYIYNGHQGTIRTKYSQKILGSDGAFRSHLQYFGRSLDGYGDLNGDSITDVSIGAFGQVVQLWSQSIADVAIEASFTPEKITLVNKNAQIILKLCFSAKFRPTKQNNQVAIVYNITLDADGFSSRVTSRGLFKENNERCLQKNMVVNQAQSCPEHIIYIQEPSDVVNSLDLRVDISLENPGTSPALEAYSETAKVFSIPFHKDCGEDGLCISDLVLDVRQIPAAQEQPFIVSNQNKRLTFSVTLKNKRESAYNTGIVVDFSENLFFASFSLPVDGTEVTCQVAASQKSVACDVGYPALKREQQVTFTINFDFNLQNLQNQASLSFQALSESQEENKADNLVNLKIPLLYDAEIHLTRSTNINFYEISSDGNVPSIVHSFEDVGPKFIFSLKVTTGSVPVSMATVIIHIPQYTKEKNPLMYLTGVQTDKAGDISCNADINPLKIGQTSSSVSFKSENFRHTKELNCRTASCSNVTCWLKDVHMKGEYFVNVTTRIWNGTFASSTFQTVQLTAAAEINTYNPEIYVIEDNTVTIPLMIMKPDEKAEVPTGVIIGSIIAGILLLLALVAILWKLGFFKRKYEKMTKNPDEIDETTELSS
Sequence of α2β1 (P05556 21-798): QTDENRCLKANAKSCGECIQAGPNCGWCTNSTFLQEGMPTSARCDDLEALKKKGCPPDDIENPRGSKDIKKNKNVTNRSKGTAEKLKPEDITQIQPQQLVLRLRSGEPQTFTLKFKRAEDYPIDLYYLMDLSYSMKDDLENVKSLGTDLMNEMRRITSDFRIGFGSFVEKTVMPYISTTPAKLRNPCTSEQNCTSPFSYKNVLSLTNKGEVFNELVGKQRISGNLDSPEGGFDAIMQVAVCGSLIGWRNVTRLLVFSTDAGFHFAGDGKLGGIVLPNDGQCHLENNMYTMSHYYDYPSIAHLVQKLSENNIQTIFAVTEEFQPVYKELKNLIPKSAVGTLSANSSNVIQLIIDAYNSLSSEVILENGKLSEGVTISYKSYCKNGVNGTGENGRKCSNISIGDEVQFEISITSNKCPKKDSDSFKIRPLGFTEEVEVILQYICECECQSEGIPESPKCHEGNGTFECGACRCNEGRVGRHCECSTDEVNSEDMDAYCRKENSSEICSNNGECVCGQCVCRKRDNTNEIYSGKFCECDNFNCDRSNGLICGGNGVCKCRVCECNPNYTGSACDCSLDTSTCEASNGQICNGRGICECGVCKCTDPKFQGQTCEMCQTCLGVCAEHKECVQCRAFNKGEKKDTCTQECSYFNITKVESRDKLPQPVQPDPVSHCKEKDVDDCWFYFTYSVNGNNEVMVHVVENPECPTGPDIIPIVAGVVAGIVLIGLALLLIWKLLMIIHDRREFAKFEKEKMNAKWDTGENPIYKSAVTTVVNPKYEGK
For `O=C(NC[C@H](NC(=O)c1c(Cl)cc2c(c1Cl)CCN(C(=O)c1ccc(Cl)cc1)C2)C(=O)O)N[C@@H]1CCc2ccccc21` [SU15210-0208-01, (S)-2-(5,7-dichloro-2-(4-chlorobenzoyl)-1,2,3,4-tetrahydroisoquinoline-6-carboxamido)-3-(3-((R)-2,3-dihydro-1H-inden-1-yl)ureido)propanoic Acid], the IC50 is < 500 nM.

On to `O=C(NC[C@H](NC(=O)c1c(Cl)cc2c(c1Cl)CCN(S(=O)(=O)c1ccccc1)C2)C(=O)O)N[C@@H]1CCc2ccccc21` [SU15210-0214-01, (S)-2-(5,7-dichloro-2-(phenylsulfonyl)-1,2,3,4-tetrahydroisoquinoline-6-carboxamido)-3-(3-((R)-2,3-dihydro-1H-inden-1-yl)ureido)propanoic Acid], for which the IC50 fell in the range of 1000 to 5000 nM.

On to `O=C(NC[C@H](NC(=O)c1c(Cl)cc(N2CC(c3ccccc3)C2)cc1Cl)C(=O)O)N[C@@H]1CCc2ccccc21` [SU15210-0190-01], for which the IC50 was > 5000 nM.

In the case of `O=C(NC[C@H](NC(=O)c1c(Cl)cc2c(c1Cl)CCNC2)C(=O)O)N[C@@H]1CCc2ccccc21` [SU15210-0171-01], the IC50 was > 5000 nM.

`CN(Cc1cccc(Cl)c1)C(=O)c1cc(Cl)c(C(=O)N[C@@H](CNC(=O)N[C@@H]2CCc3ccccc32)C(=O)O)c(Cl)c1` [SU15210-0226-01, (S)-2-(2,6-dichloro-4-((3-chlorobenzyl)(methyl)carbamoyl)benzamido)-3-(3-((R)-2,3-dihydro-1H-inden-1-yl)ureido)propanoic Acid] had an IC50 of 500 to 1000 nM.

With `O=C(NC[C@H](NC(=O)c1c(Cl)ccc(NCCc2ccccc2)c1Cl)C(=O)O)N[C@@H]1CCc2ccccc21` [SU15210-0097-01, (S)-2-(2,6-dichloro-3-(phenethylamino)benzamido)-3-(3-((R)-2,3-dihydro-1H-inden-1-yl)ureido)propanoic Acid], the IC50 fell in the range of 1000 to 5000 nM.

On to `O=C(NC[C@H](NC(=O)c1c(Cl)cc2c(c1Cl)CCN(C(=O)c1cccc(Cl)c1)C2)C(=O)O)N[C@@H]1CCc2ccccc21` [SU15210-0209-01, (S)-2-(5,7-dichloro-2-(3-chlorobenzoyl)-1,2,3,4-tetrahydroisoquinoline-6-carboxamido)-3-(3-((R)-2,3-dihydro-1H-inden-1-yl)ureido)propanoic Acid], for which the IC50 was < 500 nM.

The compound `CC(C)c1cccc(Nc2ccc(Cl)c(C(=O)N[C@@H](CNC(=O)N[C@@H]3CCc4ccccc43)C(=O)O)c2Cl)c1` [SU15210-0078-01, (S)-2-(2,6-dichloro-3-(3-isopropylphenylamino)benzamido)-3-(3-((R)-2,3-dihydro-1H-inden-1-yl)ureido)propanoic Acid] gave an IC50 of 500 to 1000 nM.

With `O=C(NC[C@H](NC(=O)c1c(Cl)cc2c(c1Cl)CCN(Cc1ccccc1)C2=O)C(=O)O)N[C@@H]1CCc2ccccc21` [SU15210-0211-01, (S)-2-(2-benzyl-5,7-dichloro-1-oxo-1,2,3,4-tetrahydroisoquinoline-6-carboxamido)-3-(3-((R)-2,3-dihydro-1H-inden-1-yl)ureido)propanoic Acid], the IC50 is < 500 nM.

`CC(=O)N1CCc2c(cc(Cl)c(C(=O)N[C@@H](CNC(=O)N[C@@H]3CCc4ccccc43)C(=O)O)c2Cl)C1` [SU15210-0174-01] returned an IC50 of 1000 to 5000 nM.

On to `Cc1cccc(CC(=O)Nc2ccc(Cl)c(C(=O)N[C@@H](CNC(=O)N[C@@H]3CCc4ccccc43)C(=O)O)c2Cl)c1` [SU15210-0156-01, (S)-2-(2,6-dichloro-3-(2-m-tolylacetamido)benzamido)-3-(3-((R)-2,3-dihydro-1H-inden-1-yl)ureido)propanoic Acid], for which the half-inhibitory concentration (IC50) was 500 to 1000 nM.

Compound `O=C(NC[C@H](NC(=O)c1c(Cl)ccc(NC2CCc3ccccc3C2)c1Cl)C(=O)O)N[C@@H]1CCc2ccccc21` (stereo partly drawn) [SU15210-0126-01, (2S)-2-(2,6-dichloro-3-(1,2,3,4-tetrahydronaphthalen-2-ylamino)benzamido)-3-(3-((R)-2,3-dihydro-1H-inden-1-yl)ureido)propanoic Acid] yielded an IC50 of 1000 to 5000 nM.

In the case of `Cc1ccc(CC(=O)Nc2ccc(Cl)c(C(=O)N[C@@H](CNC(=O)N[C@@H]3CCc4ccccc43)C(=O)O)c2Cl)cc1Cl` [SU15210-0154-01, (S)-2-(2,6-dichloro-3-(2-(3-chloro-4-methylphenyl)acetamido)benzamido)-3-(3-((R)-2,3-dihydro-1H-inden-1-yl)ureido)propanoic Acid], the concentration for half-maximal inhibition (IC50) fell in the range of 1000 to 5000 nM.

With `C[C@H](NC(=O)c1cc(Cl)c(C(=O)N[C@@H](CNC(=O)N[C@@H]2CCc3ccccc32)C(=O)O)c(Cl)c1)c1ccccc1` [SU15210-0224-01, (S)-2-(2,6-dichloro-4-((S)-1-phenylethylcarbamoyl)benzamido)-3-(3-((R)-2,3-dihydro-1H-inden-1-yl)ureido)propanoic Acid], the IC50 was in the range of 1000 to 5000 nM.

With `O=C(NC[C@H](NC(=O)c1c(Cl)cc(C(=O)N2CC(c3ccccc3)C2)cc1Cl)C(=O)O)N[C@@H]1CCc2ccccc21` [SU15210-0234-01], the IC50 is < 500 nM.

Compound `O=C(NC[C@H](NC(=O)c1c(Cl)cc(C(=O)N2Cc3ccccc3C2)cc1Cl)C(=O)O)N[C@@H]1CCc2ccccc21` [SU15210-0228-01, (S)-2-(2,6-dichloro-4-(isoindoline-2-carbonyl)benzamido)-3-(3-((R)-2,3-dihydro-1H-inden-1-yl)ureido)propanoic Acid] registered an IC50 of 1000 to 5000 nM.

Turning to `CC(C)CCNc1ccc(Cl)c(C(=O)N[C@@H](CNC(=O)N[C@@H]2CCc3ccccc32)C(=O)O)c1Cl` [SU15210-0125-01, (S)-2-(2,6-dichloro-3-(isopentylamino)benzamido)-3-(3-((R)-2,3-dihydro-1H-inden-1-yl)ureido)propanoic Acid], the IC50 was 1000 to 5000 nM.

Compound `O=C(NC[C@H](NC(=O)c1c(Cl)cc2c(c1Cl)CCN(Cc1ccc(F)cc1)C2)C(=O)O)N[C@@H]1CCc2ccccc21` [SU15210-0210-01, (S)-2-(5,7-dichloro-2-(4-fluorobenzyl)-1,2,3,4-tetrahydroisoquinoline-6-carboxamido)-3-(3-((R)-2,3-dihydro-1H-inden-1-yl)ureido)propanoic Acid] returned a half-maximal inhibitory concentration (IC50) of 1000 to 5000 nM.

For `O=C(NC[C@H](NC(=O)c1c(Cl)cc(-c2ccccc2)cc1Cl)C(=O)O)N[C@@H]1CCc2ccccc21` [SU15210-0140-01], the IC50 is > 5000 nM.

Regarding `O=C(Cc1cccc(Cl)c1)Nc1ccc(Cl)c(C(=O)N[C@@H](CNC(=O)NCc2ccccc2O)C(=O)O)c1Cl` [SU15210-0159-01, (S)-2-(2,6-dichloro-3-(2-(3-chlorophenyl)acetamido)benzamido)-3-(3-(2-hydroxybenzyl)ureido)propanoic Acid], the IC50 was < 500 nM.

Regarding `O=C(NC[C@H](NC(=O)c1c(Cl)cc(-n2cnc(-c3ccccc3)c2)cc1Cl)C(=O)O)N[C@@H]1CCc2ccccc21` [SU15210-0192-01, (S)-2-(2,6-dichloro-4-(4-phenyl-1H-imidazol-1-yl)benzamido)-3-(3-((R)-2,3-dihydro-1H-inden-1-yl)ureido)propanoic Acid], the IC50 lay in the range of 1000 to 5000 nM.

With `O=C(Cc1cccc(Cl)c1)Nc1cc(Cl)c(C(=O)N[C@@H](CNC(=O)N[C@@H]2CCc3ccccc32)C(=O)O)c(Cl)c1` [SU15210-0235-01, (S)-2-(2,6-dichloro-4-(2-(3-chlorophenyl)acetamido)benzamido)-3-(3-((R)-2,3-dihydro-1H-inden-1-yl)ureido)propanoic Acid], the IC50 is < 500 nM.

The compound `O=C(NC[C@H](NC(=O)c1c(Cl)cc(C(=O)N2CCc3ccccc3C2)cc1Cl)C(=O)O)N[C@@H]1CCc2ccccc21` [SU15210-0227-01, (S)-2-(2,6-dichloro-4-(1,2,3,4-tetrahydroisoquinoline-2-carbonyl)benzamido)-3-(3-((R)-2,3-dihydro-1H-inden-1-yl)ureido)propanoic Acid] yielded an IC50 of 500 to 1000 nM.

`O=C(NC[C@H](NC(=O)c1c(Cl)cc(OCCc2ccccc2)cc1Cl)C(=O)O)N[C@@H]1CCc2ccccc21` [SU15210-0188-01, (S)-2-(2,6-dichloro-4-phenethoxybenzamido)-3-(3-((R)-2,3-dihydro-1H-inden-1-yl)ureido)propanoic Acid] returned an IC50 of 1000 to 5000 nM.

`Nc1ccc(Cl)c(C(=O)N[C@@H](CNC(=O)N[C@@H]2CCc3ccccc32)C(=O)O)c1Cl` [SU15210-0084-01, (S)-2-(3-amino-2,6-dichlorobenzamido)-3-(3-((R)-2,3-dihydro-1H-inden-1-yl)ureido)propanoic Acid] displayed an IC50 of 500 to 1000 nM.

For the compound `CN(Cc1ccccc1)C(=O)NC[C@H](NC(=O)c1c(Cl)cc(C(=O)NCc2cccc(Cl)c2)cc1Cl)C(=O)O` [SU15210-0223-01, (S)-3-(3-benzyl-3-methylureido)-2-(2,6-dichloro-4-(3-chlorobenzylcarbamoyl)benzamido)propanoic Acid], the IC50 is < 500 nM.

As to `O=C(NC[C@H](NC(=O)c1c(Cl)ccc(N2CC(c3ccc(Cl)cc3)C2)c1Cl)C(=O)O)N[C@@H]1CCc2ccccc21` [SU15210-0163-01, (S)-2-(2,6-dichloro-3-(3-(4-chlorophenyl)azetidin-1-yl)benzamido)-3-(3-((R)-2,3-dihydro-1H-inden-1-yl)ureido)propanoic Acid], the IC50 lay within 1000 to 5000 nM.

Compound `O=C(Cc1ccc(F)c(Cl)c1)Nc1ccc(Cl)c(C(=O)N[C@@H](CNC(=O)N[C@@H]2CCc3ccccc32)C(=O)O)c1Cl` [SU15210-0155-01, (S)-2-(2,6-dichloro-3-(2-(3-chloro-4-fluorophenyl)acetamido)benzamido)-3-(3-((R)-2,3-dihydro-1H-inden-1-yl)ureido)propanoic Acid] returned an IC50 of 500 to 1000 nM.

For `C[C@@H](NC(=O)c1cc(Cl)c(C(=O)N[C@@H](CNC(=O)N[C@@H]2CCc3ccccc32)C(=O)O)c(Cl)c1)c1ccccc1` [SU15210-0225-01, (S)-2-(2,6-dichloro-4-((R)-1-phenylethylcarbamoyl)benzamido)-3-(3-((R)-2,3-dihydro-1H-inden-1-yl)ureido)propanoic Acid], the IC50 was < 500 nM.

With `CC1(C)CCC(NC(=O)NC[C@H](NC(=O)c2c(Cl)cc(C(=O)NCc3cccc(O)c3)cc2Cl)C(=O)O)c2ccccc21` (stereo partly drawn) [SU15210-0187-01, (2S)-2-(2,6-dichloro-4-(3-hydroxybenzylcarbamoyl)benzamido)-3-(3-(4,4-dimethyl-1,2,3,4-tetrahydronaphthalen-1-yl)ureido)propanoic Acid], the IC50 was < 500 nM.
